The values below come from patent EP1059033A1, “INDUSTRIAL ANTIBACTERIAL/ANTIFUNGAL AGENTS, ALGICIDES AND ANTI-BIOLOGICAL ADHESION AGENTS CONTAINING BENZYLAMINES” (Nissan Chemical Industries, Ltd., priority 1998, dated 1999).

Common to all, as to format: cell-based
Experiment [1] deals with freshwater green alga (Selenastrum capricornutum). The experiment can be described thus: Inhibition of propagation of freshwater green alga (Example 4). The note with it: for inhibition at 0.05 ppm: read-out: Propagation inhibiting rate(%) 50ppb; for inhibition at 0.5 ppm: read-out: Propagation inhibiting rate(%) 500ppb. The procedure, abridged:
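Log-phase Selenastrum capricornutum at 10^5 cells/ml was exposed to compound at 500 ppb or 50 ppb in culture medium and held stationary at 23±1 °C under continuous light. Cells were counted by hemacytometer after 72 h, and propagation inhibition was calculated relative to untreated culture.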

For experiment [2], the system named is Trichophyton mentagrophytes. The note with it: 72 h, 100 ppm.
Experiment [3] deals with Trichophyton mentagrophytes. Nature of the experiment: Agar dilution MIC (Example 3). The note with it: 168 h, agar plate, 27 °C, 7 days. Put shortly:
(§1)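 Compound DMSO dilutions mixed into agar to final 1000–2.0 mg/l (sensitive medium-N for bacteria, potato dextrose agar for fungi); 10^6 CFU/ml suspensions streaked. Bacteria grown 18–20 h at 37±1 °C, fungi 7 days at 27 °C; MIC is lowest concentration with no visible growth.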
For orientation: In agar dilution the substance is mixed into plates at graded concentrations.

For the next experiment, the system named is Staphylococcus aureus. The experiment can be described thus: Agar dilution MIC (Example 3). The note with it: agar plate, 37±1 °C, 18 to 20 hours. The procedure, abridged:
as §1

Experiment [4] concerns Bacillus subtilis. The experiment can be described thus: Agar dilution MIC (Example 3). The note with it: agar plate, 37±1 °C, 18 to 20 hours. The procedure, abridged:
as §1

For experiment [5], the system named is Trichophyton mentagrophytes. Nature of the experiment: Agar dilution MIC (Example 2). The note with it: 168 h, agar plate, 27 °C, 7 days. Put shortly:
(§2)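 Compounds in DMSO were mixed into sensitive medium-N agar (bacteria) or potato dextrose agar (fungi), giving final 0.062–1000 mg/l. Plates were streaked with 10^6 CFU/ml suspensions and incubated 18–20 h at 37±1 °C (bacteria) or 7 days at 27 °C (fungi). MIC (mg/l) is the lowest concentration with no visible growth.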

The subject of experiment [6] is Bacillus subtilis. The experiment can be described thus: Agar dilution MIC (Example 2). The note with it: agar plate, 37±1 °C, 18 to 20 hours. The procedure, abridged: as §2
The subject of experiment [7] is seawater diatom [Nitzschia closterium]. The experiment can be described thus: Inhibition of propagation of seawater diatom (Example 5). The note with it: Cylindrotheca closterium, 72 h, read-out: Propagation inhibiting rate(%) 500ppb.
The next experiment relates to Rhodotorula rubra. The experiment can be described thus: Agar dilution MIC (Example 3). The note with it: 168 h, agar plate, 27 °C, 7 days. The procedure, abridged: as §1
The subject of the next experiment is Chaetomium globosum. The experiment can be described thus: Agar dilution MIC (Example 3). The note with it: 168 h, agar plate, 27 °C, 7 days. Put shortly: as §1
A further experiment has as its system Saccharomyces cerevisiae. Nature of the experiment: Agar dilution MIC (Example 3). The note with it: 168 h, agar plate, 27 °C, 7 days. Put shortly:
as §1

The test system of a further experiment is Fusarium moniliforme. Nature of the experiment: Agar dilution MIC (Example 3). The note with it: Fusarium verticillioides, 168 h, agar plate, 27 °C, 7 days. Put shortly: as §1
The test system of another experiment is Candida albicans. Nature of the experiment: Agar dilution MIC (Example 3). The note with it: 168 h, agar plate, 27 °C, 7 days. Put shortly:
as §1

In experiment [8] the test system is Cladosporium cladosporioides. The experiment can be described thus: Agar dilution MIC (Example 3). The note with it: 168 h, agar plate, 27 °C, 7 days. Put shortly:
as §1

The subject of a further experiment is Aspergillus niger. Nature of the experiment: Agar dilution MIC (Example 3). The note with it: 168 h, agar plate, 27 °C, 7 days. Put shortly: as §1
A further experiment concerns Alternaria alternata. The experiment can be described thus: Agar dilution MIC (Example 3). The note with it: 168 h, agar plate, 27 °C, 7 days. Put shortly: as §1
Experiment [9] deals with Corynebacterium aquaticum. The experiment can be described thus: Agar dilution MIC (Example 3). The note with it: Leifsonia aquatica, agar plate, 37±1 °C, 18 to 20 hours. The procedure, abridged: as §1
For the next experiment, the system named is Penicillium funiculosum. Nature of the experiment: Agar dilution MIC (Example 3). The note with it: Talaromyces funiculosus, 168 h, agar plate, 27 °C, 7 days. Put shortly: as §1
Another experiment has as its system Micrococcus luteus. Nature of the experiment: Agar dilution MIC (Example 3). The note with it: agar plate, 37±1 °C, 18 to 20 hours. Put shortly:
as §1

Another experiment deals with Rhodotorula mucilaginosa. Nature of the experiment: Agar dilution MIC (Example 2). The note with it: 168 h, agar plate, 27 °C, 7 days. The procedure, abridged: as §2
The mark [10] stands for this setting: 500ppb, after 72 hours, cell number vs non-treated lot.

Values after ≈ are worked out from the molar mass of the structure shown. Where two headings read alike, the source gives them in different places.

By MIC is commonly meant the lowest concentration found to suppress growth. In the case of `CN(Cc1ccc(C(C)(C)C)cc1)Cc1ccc(Cl)c(Cl)c1` [Compound 3], the inhibition at 0.05 ppm in experiment [1] (72 h) is 90%. For the same compound, the inhibition at 0.5 ppm in experiment [1] (72 h) stood at 94%. For the same compound, the “Judgment (Target bacteria: A)” value in experiment [2] was “+ (inhibiting zone (10 to 20 mm) is observed)”. The MIC is under 2 µg/mL in [3]; 125 µg/mL (≈ 372 µM) in the experiment on Staphylococcus aureus; 125 µg/mL (≈ 372 µM) in the experiment on Bacillus subtilis [4]; under 2 µg/mL in experiment [5]; 125 µg/mL (≈ 372 µM) against Bacillus subtilis [6].
Turning to `Cc1cccc(CN(C)Cc2ccc(C(C)(C)C)cc2)c1C` [Compound 4], the inhibition at 0.05 ppm in experiment [1] (50ppb, after 72 hours, cell number vs non-treated lot) worked out at 64%. In addition, the inhibition at 0.5 ppm in [1] (setting [10]) worked out at 95%; in [7] it was 70%. In addition, the “Judgment (Target bacteria: A)” value in [2] is “++ (strongly inhibiting zone (equal to or more than 21 mm) is observed)”. The MIC in the experiment with Rhodotorula rubra is 63 µg/mL (≈ 213 µM); in the experiment with Chaetomium globosum, 31.3 µg/mL (≈ 106 µM); in the experiment with Saccharomyces cerevisiae it was 63 µg/mL (≈ 213 µM); in experiment [3], under 2 µg/mL; against Fusarium moniliforme, 31.3 µg/mL (≈ 106 µM); in the experiment on Candida albicans, 62.5 µg/mL (≈ 212 µM). Further, the MIC in experiment [8] was 31.3 µg/mL (≈ 106 µM); in the experiment with Aspergillus niger, 15.6 µg/mL (≈ 52.8 µM); in the experiment on Alternaria alternata, 31.3 µg/mL (≈ 106 µM); in experiment [9] it was 31.3 µg/mL (≈ 106 µM); against Penicillium funiculosum, 15.6 µg/mL (≈ 52.8 µM); in experiment [5], under 2 µg/mL.
As to `CC(C)(C)c1ccc(CNCc2cccc(Cl)c2Cl)cc1` [Compound 16], the results for the inhibition at 0.5 ppm in [1] (setting [10]) and in experiment [7] were 90% and 80%, respectively. Besides, the MIC in [3] was 7.8 µg/mL (≈ 24.2 µM); against Candida albicans it was 62.5 µg/mL (≈ 194 µM); in the experiment with Bacillus subtilis [4] it was 7.8 µg/mL (≈ 24.2 µM); against Aspergillus niger it was 125 µg/mL (≈ 388 µM); against Penicillium funiculosum it was 62.5 µg/mL (≈ 194 µM); in experiment [5], 7.8 µg/mL (≈ 24.2 µM). Moreover, in the experiment with Bacillus subtilis [6], the MIC was 7.8 µg/mL (≈ 24.2 µM).
As for `Cc1cccc(CNCc2ccc(C(C)(C)C)cc2)c1C` [Compound 27], the inhibition at 0.5 ppm in experiment [1] (setting [10]) is 89%; in experiment [7], 90%. The minimal inhibitory concentration (MIC) against Rhodotorula rubra was determined as 125 µg/mL (≈ 444 µM); with Chaetomium globosum, 63 µg/mL (≈ 224 µM); against Saccharomyces cerevisiae it was 63 µg/mL (≈ 224 µM); in the experiment on Micrococcus luteus, 15.6 µg/mL (≈ 55.4 µM); in experiment [8] it was 125 µg/mL (≈ 444 µM); in the experiment on Alternaria alternata, 125 µg/mL (≈ 444 µM). Further, the MIC in experiment [9] worked out at 7.8 µg/mL (≈ 27.7 µM); in the experiment on Rhodotorula mucilaginosa it was 15.6 µg/mL (≈ 55.4 µM); in [5], 7.8 µg/mL (≈ 27.7 µM); in the experiment with Bacillus subtilis [6], 31.3 µg/mL (≈ 111 µM).
